The text below walks through data of US8778617B2, “Method for determining the binding constant of high affinity compounds” (Hoffmann-La Roche Inc., priority 2010, dated 2014).

Series [1] deals with plasma protein. Kind of series: Protein binding determined with conventional methods (literature values / inhouse). The format is in vitro ADME. Particulars: read-out: fu (%) Literature (binding level). An excerpt: The determined binding levels of the test compound in example 6 (“new approach”) were compared with the values determined with conventional methods (literature values).

Series [2] has as its target human serum albumin (HSA) (Homo sapiens, UniProt P02768). Kind of series: Assay with PVP 25 (sink compound) and human serum albumin, new approach. The format is in vitro ADME. The conditions noted are these: pH 7.4, PVP 25 4.0% (m/V) as sink compound, HSA 60 mM, membrane MWCO 3.5 kDa, test compound 0.02 mM to 0.6 mM, HPLC; for fraction bound to HSA: read-out: fu (%) newApproach (binding level to HSA). The protocol:
(§1) 2) The protein chamber (chamber 2) is filled with buffer and the other excipients to the final volume of approximately 100-150 ul. It is important that on each side the volume is exactly the same.
End concentration of HSA: 60 mM
(§2) 5) The chamber system was shaken for 1 hour, then incubated over night (approximately 12 hours). Long duration shaking should be avoided due to the risk of higher evaporation caused by the generated heat.
(§3) 6) After reaching the equilibrium, a sample from the sink chamber (reference, binding study II with sink compound and HSA), or from the protein chamber (reference, binding study I with sink compound alone) was transferred to a half-area UV-plate and analyzed spectrometrically (spectra max, 190 Plate Reader; 250-500 nm) or it was analysed by HPLC.
The distribution coefficient and the binding constant can be calculated with binding studies. The binding of drugs to HSA is a reversible process which can be described by the following equilibrium [Du]+[HSA]·[D·HSA]
The binding constant KHSA can be converted to the fraction unbound fu with the following formula derived from the law of mass:
The binding constant to HSA (KHSA) (2) can be calculated from the combination of partition coefficients to PVP (DCPVP) (3) and to HSA in the presence of PVP (DCHSA′) (3). KHSA=DCPVP·DCHSA′ (2)
Vtotal is total volume in the dialysis chamber (200 μl) and VHSA and VPVP are the volumes of HSA and PVP 25, which can be calculated from the density and the weighted sample
Analytics was carried out on an HPLC-system (Agilent 1100). The separations were performed on a RP column (Chromolith flash, RP18e, 4.6×25 mm). Samples were eluted with gradient of water with 0.05% formic acid (A) and Acetonitril (B).

A short description of series [3]: Equilibrium dialysis, binding to beta-hydroxypropyl-cyclodextrine as sink compound. The conditions noted are these: membrane cut off 1 kDa; for Average Binding [%] to beta-hydroxypropyl-cyclodextrine: beta-hydroxypropyl-cyclodextrine 10% (m/V), test compound 0.02 mM-0.06 mM, DMSO 6% (V/V); for fb(%) excipient binding level: Warfarin 0.01 mM to 0.4 mM, UV. The procedure:
A reusable 96-well Micro-Equilibrium dialysis Device 96 chamber was used for the following experiments. The chamber system consists of 10 Teflon™ bars, wherein semipermeable membranes (see 1.2 Membranes) were placed between two Teflon™ bars each to form two compartment of each well. 2) The protein chamber (chamber 2) is filled with buffer and the other excipients to the final volume of approximately 100-150 ul. […] 5) The chamber system was shaken for 1 hour, then incubated over night (approximately 12 hours). Long duration shaking should be avoided due to the risk of higher evaporation caused by the generated heat.
On the technique in general: Equilibrium dialysis compares concentrations on both sides of a semipermeable membrane.

Series [4] can be described thus: Equilibrium dialysis, binding to PVP 15. Particulars: PVP 15 40 g/l; drugs 0.02-0.6 mM. The protocol:
(§4) A reusable 96-well Micro-Equilibrium dialysis Device 96 chamber was used for the following experiments. The chamber system consists of 10 Teflon™ bars, wherein semipermeable membranes (see 1.2 Membranes) were placed between two Teflon™ bars each to form two compartment of each well.
as §1
(§5) with PVP and PVP in combination with cyclodextrines as sink compound in chamber the volume was 100 μl. (PVP 15 4% (m/V), PVP 25 4% (m/V), PVP 25 4% (m/V)+β-Hydroxypropyl-cyclodextrin 4% (m/V))
as §2, §3
(§6) Concentrations of the drugs: 0.02-0.6 mM
(§7) Amounts of PVP 15 and PVP25: each 40 g/l

A short description of series [5]: Equilibrium dialysis, binding to PVP 25. Particulars: PVP25 40 g/l; drugs 0.02-0.6 mM. The procedure:
as §4, §1, §5, §2, §3, §6, §7

A short description of series [6]: Equilibrium dialysis, excipient binding to gamma-cyclodextrin. The conditions noted are these: γ-Cyclodextrin 2.5% (m/V); membrane cut off 1 kDa; Warfarin 0.01 mM to 0.4 mM; UV. The procedure: as §4, §1, §2, §3
A short description of series [7]: Equilibrium dialysis, binding to combination of PVP25 and beta-hydroxypropyl-cyclodextrin as sink compound. Particulars: PVP 25 4% (m/V) + β-Hydroxypropyl-cyclodextrin 4% (m/V); membrane cut off 1 kDa; test compound 0.02 mM to 0.6 mM. The procedure:
as §4, §1, §5, §2, §3

Series [8] has as its system plasma protein. Particulars: conventional methods, literature values; cited from earlier work.

Chain of human serum albumin (HSA) (P02768 25-609): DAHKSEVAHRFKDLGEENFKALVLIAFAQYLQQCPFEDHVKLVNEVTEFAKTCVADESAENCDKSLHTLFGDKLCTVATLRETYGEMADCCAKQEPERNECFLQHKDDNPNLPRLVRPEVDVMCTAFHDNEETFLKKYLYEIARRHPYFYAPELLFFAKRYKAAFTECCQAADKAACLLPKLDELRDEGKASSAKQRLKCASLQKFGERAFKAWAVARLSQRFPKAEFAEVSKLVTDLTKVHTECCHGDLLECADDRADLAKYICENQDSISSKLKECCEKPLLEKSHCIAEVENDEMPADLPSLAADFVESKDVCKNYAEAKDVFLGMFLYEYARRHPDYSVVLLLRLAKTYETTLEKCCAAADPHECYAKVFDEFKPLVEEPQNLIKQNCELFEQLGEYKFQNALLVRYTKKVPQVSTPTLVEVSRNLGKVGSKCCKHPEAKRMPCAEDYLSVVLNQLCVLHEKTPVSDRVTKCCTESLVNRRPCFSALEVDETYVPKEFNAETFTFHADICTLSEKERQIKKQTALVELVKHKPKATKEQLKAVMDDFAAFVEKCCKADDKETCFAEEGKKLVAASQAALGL

Turning to `COc1ccc(Cl)cc1C(=O)NCCc1ccc(S(=O)(=O)NC(=O)NC2CCCCC2)cc1` [Glibenclamid, 5-chloro-N-(4-[N-(cyclohexylcarbamoyl)sulfamoyl]phenethyl)-2-methoxybenzamide], the fraction bound in series [1] was 0.997. For the same compound, the fraction bound to HSA in series [2] worked out at 1.
For `C=C[C@H]1C[N@@]2CC[C@H]1C[C@H]2[C@H](O)c1ccnc2ccc(OC)cc12` [Quinine], the “Average Binding [%] to beta-hydroxypropyl-cyclodextrine” value in series [3] came out at 21.6%.
Take `NS(=O)(=O)c1cc(C(=O)O)c(NCc2ccco2)cc1Cl` [Furosemid, 4-chloro-2-(furan-2-ylmethylamino)-5-sulfamoylbenzoic acid]: in series [4], the “Average binding [%] to PVP15” value is 37.0%. In series [5], the “Average binding [%] to PVP25” value stood at 49.4%.
As to `CO/N=C(\C(=O)N[C@@H]1C(=O)N2C(C(=O)O)=C(CSc3nc(=O)c(=O)[nH]n3C)CS[C@H]12)c1csc(N)n1` [Ceftriaxone], the “Average Binding [%] to beta-hydroxypropyl-cyclodextrine” value in series [3] was determined as 14.2%.
As for `O=C(O)Cc1ccccc1Nc1c(Cl)cccc1Cl` [Diclofenac, 2-(2-(2,6-dichlorophenylamino)phenyl)acetic acid], in series [3], the “Average Binding [%] to beta-hydroxypropyl-cyclodextrine” value is on record as 23.1%. Moreover, the “Average binding [%] to PVP15” value in series [4] was 21.7%. For the same compound, the “Average binding [%] to PVP25” value in series [5] is 46.4%.
For the compound `CC(=O)CC(c1ccccc1)c1c(O)c2ccccc2oc1=O` (racemic) [Warfarin, (RS)-4-hydroxy-3-(3-oxo-1-phenylbutyl)-2H-chromen-2-one], the “fb(%) excipient binding level” value in series [3] (β-Hydroxypropyl-cyclodextrin 1% (m/V)) is 6.8%; in series [3] (β-Hydroxypropyl-cyclodextrin 10% (m/V)), 27.6%; in series [6] it was 6.0%; in series [7], 27.9%.
`CN1/C(=C(/O)Nc2ccccn2)C(=O)c2ccccc2S1(=O)=O` [Piroxicame, (8E)-8-[hydroxy-(pyridin-2-ylamino)methylidene]-9-methyl-10,10-dioxo-10λ6-thia-9-azabicyclo[4.4.0]deca-1,3,5-trien-7-one]: the “fu (%) Literature (binding level)” value in series [8] is reported as 99.0%. The fraction bound in series [2] was determined as 99.6%.
Take `NC(=O)N1c2ccccc2C=Cc2ccccc21` [Carbamazepin]: the “Average Binding [%] to beta-hydroxypropyl-cyclodextrine” value in series [3] was determined as 31.3%.
Regarding `CN(C)CCCN1c2ccccc2Sc2ccc(Cl)cc21` [Chlorpromazine, 3-(2-chloro-10H-phenothiazin-10-yl)-N,N-dimethyl-propan-1-amine], the “fu (%) Literature (binding level)” value in series [8] is reported as 97.80%. Also, the fraction bound to HSA in series [2] came out at 0.994.
